Reference: ChEMBL document CHEMBL1201862, “PubChem BioAssay data set” (2004)
Active and inactive are the calls of the source.

Assays:
[1] = target: T1, Carboxy-terminal domain RNA polymerase II polypeptide A small phosphatase 1 (Homo sapiens, UniProt Q9GZU7); assay: inhibitors of CTDSP1, concentration-response testing, biochemical assay, absorbance-based, actives from ultra-high-throughput screening (AID 540297); type: functional
T1 sequence (Q9GZU7 whole entry): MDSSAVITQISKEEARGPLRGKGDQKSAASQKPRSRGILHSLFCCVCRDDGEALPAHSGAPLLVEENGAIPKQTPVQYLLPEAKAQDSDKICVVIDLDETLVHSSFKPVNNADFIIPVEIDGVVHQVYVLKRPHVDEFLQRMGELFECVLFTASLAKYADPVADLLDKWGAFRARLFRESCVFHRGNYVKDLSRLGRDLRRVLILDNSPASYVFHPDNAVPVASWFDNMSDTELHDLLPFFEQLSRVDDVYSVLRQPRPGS

[2] = target: T2, Mannose-6-phosphate isomerase (Homo sapiens, UniProt P34949); assay: human PMI inhibitors, high substrate, primary screen, biochemical, fluorescence intensity, high mannose 6-phosphate (AID 1220)
T2 sequence (P34949 whole entry): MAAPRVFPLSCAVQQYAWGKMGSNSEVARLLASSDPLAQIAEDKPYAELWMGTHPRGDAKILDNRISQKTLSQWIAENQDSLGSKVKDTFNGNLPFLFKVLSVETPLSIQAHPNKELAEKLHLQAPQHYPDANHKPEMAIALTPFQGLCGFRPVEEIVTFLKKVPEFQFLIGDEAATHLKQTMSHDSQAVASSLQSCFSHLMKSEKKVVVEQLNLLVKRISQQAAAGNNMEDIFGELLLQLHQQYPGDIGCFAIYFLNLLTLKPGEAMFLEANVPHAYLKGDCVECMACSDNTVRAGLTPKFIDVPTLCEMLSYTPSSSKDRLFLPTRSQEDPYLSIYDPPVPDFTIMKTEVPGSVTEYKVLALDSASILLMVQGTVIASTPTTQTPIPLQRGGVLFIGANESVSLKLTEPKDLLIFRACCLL

[3] = target: T3, Ubiquitin-conjugating enzyme E2 N (Homo sapiens, UniProt P61088); type: functional;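 also: Dose-response confirmation in a TR-FRET assay detecting UBC13-driven polyubiquitin chain formation, inhibition measured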
T3 sequence (P61088 whole entry): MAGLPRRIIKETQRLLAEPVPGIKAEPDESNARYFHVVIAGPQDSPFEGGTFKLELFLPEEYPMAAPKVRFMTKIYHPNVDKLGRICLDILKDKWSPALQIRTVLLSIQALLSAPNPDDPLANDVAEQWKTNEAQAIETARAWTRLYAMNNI

cells [4] = type: functional, cell-based
Caspase-6 = target: T4, Caspase-6 (Homo sapiens, UniProt P55212); assay: human caspase-6 inhibitors, dose response, biochemical, VEID-R110 fluorescence, cherry-pick (AID 720632)
T4 sequence (P55212 whole entry): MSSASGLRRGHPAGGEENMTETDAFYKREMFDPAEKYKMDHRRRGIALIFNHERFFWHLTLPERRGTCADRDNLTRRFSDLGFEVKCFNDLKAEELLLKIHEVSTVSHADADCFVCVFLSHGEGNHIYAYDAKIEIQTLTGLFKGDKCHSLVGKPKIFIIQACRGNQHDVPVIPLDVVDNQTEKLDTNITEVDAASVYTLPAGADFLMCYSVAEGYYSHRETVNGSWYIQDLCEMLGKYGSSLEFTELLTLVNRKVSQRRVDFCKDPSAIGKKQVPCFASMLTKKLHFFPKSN

cells [5] = type: functional, cell-based; remark: listed apart in the source
Cytochrome P450 2C9 = Cytochrome P450 2C9 (Homo sapiens, UniProt P11712)
Fatty acid synthase [6] = target: T5, Fatty acid synthase (Homo sapiens, UniProt P49327); assay: FAS thioesterase domain inhibitors, dose response, biochemical, kinetic fluorescence intensity (AID 624326); type: functional;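 also: rate of fluorescence rise from hydrolysis of a fluorogenic O-methyl fluorescein ester substrate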
Fatty acid synthase [7] = target: T5, Fatty acid synthase; assay: FAS thioesterase domain inhibitors, dose response, biochemical, endpoint fluorescence intensity, uHTS hits (AID 624327); type: functional;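 also: fluorescence from hydrolysis of an O-methyl fluorescein acyl ester substrate by the enzyme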
[8] = Luminescence Cell-Based Dose Confirmation HTS to Identify Inhibitors of Platelet Dense Granule Release. [Related pubchem assays: 1663 (Primary HTS), 1678 (Summary of Project)]; type: functional
[9] = target: Luciferin 4-monooxygenase (Photinus pyralis, UniProt P08659); assay: firefly luciferase enzyme inhibitors, dose response, biochemical, luminescence (AID 1891)
[10] = target: T6, RNA-binding protein pos-1 (Caenorhabditis elegans, UniProt G5EF15); assay: inhibitors of POS-1/mex-3 RNA binding, dose response, biochemical, fluorescence polarization (AID 1964);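 also: purified POS-1 fused to maltose binding protein made in E. coli; potency of compounds blocking POS-1 binding to fluorescent RNA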
T6 sequence (G5EF15 whole entry): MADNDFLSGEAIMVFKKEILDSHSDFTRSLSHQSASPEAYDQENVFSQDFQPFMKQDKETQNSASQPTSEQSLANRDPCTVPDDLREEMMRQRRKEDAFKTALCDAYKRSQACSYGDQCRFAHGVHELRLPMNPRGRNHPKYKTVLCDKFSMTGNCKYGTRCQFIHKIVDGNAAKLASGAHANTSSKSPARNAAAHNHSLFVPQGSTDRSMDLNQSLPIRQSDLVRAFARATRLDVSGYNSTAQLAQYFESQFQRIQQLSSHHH

[11] = target: T7, Zinc finger protein mex-5 (Caenorhabditis elegans, UniProt Q9XUB2); assay: MEX-5/TCR-2 RNA interaction inhibitors, dose response, biochemical, C. elegans, fluorescence polarization (AID 1960)
T7 sequence (Q9XUB2 whole entry): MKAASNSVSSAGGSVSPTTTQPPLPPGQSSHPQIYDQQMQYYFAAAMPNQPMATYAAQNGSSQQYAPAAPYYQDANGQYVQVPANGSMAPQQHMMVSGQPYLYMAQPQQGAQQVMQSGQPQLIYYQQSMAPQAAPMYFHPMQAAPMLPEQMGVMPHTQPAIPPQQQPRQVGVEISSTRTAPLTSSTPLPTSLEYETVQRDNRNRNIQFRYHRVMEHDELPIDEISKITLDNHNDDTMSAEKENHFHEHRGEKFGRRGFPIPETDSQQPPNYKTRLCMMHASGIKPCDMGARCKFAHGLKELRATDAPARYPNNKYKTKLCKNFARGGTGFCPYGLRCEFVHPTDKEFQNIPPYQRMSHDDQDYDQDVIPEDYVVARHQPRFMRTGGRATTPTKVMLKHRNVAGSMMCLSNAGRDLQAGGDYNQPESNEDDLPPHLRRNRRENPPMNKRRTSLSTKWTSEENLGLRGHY

T5 sequence (P49327 whole entry, the tested form may be a part): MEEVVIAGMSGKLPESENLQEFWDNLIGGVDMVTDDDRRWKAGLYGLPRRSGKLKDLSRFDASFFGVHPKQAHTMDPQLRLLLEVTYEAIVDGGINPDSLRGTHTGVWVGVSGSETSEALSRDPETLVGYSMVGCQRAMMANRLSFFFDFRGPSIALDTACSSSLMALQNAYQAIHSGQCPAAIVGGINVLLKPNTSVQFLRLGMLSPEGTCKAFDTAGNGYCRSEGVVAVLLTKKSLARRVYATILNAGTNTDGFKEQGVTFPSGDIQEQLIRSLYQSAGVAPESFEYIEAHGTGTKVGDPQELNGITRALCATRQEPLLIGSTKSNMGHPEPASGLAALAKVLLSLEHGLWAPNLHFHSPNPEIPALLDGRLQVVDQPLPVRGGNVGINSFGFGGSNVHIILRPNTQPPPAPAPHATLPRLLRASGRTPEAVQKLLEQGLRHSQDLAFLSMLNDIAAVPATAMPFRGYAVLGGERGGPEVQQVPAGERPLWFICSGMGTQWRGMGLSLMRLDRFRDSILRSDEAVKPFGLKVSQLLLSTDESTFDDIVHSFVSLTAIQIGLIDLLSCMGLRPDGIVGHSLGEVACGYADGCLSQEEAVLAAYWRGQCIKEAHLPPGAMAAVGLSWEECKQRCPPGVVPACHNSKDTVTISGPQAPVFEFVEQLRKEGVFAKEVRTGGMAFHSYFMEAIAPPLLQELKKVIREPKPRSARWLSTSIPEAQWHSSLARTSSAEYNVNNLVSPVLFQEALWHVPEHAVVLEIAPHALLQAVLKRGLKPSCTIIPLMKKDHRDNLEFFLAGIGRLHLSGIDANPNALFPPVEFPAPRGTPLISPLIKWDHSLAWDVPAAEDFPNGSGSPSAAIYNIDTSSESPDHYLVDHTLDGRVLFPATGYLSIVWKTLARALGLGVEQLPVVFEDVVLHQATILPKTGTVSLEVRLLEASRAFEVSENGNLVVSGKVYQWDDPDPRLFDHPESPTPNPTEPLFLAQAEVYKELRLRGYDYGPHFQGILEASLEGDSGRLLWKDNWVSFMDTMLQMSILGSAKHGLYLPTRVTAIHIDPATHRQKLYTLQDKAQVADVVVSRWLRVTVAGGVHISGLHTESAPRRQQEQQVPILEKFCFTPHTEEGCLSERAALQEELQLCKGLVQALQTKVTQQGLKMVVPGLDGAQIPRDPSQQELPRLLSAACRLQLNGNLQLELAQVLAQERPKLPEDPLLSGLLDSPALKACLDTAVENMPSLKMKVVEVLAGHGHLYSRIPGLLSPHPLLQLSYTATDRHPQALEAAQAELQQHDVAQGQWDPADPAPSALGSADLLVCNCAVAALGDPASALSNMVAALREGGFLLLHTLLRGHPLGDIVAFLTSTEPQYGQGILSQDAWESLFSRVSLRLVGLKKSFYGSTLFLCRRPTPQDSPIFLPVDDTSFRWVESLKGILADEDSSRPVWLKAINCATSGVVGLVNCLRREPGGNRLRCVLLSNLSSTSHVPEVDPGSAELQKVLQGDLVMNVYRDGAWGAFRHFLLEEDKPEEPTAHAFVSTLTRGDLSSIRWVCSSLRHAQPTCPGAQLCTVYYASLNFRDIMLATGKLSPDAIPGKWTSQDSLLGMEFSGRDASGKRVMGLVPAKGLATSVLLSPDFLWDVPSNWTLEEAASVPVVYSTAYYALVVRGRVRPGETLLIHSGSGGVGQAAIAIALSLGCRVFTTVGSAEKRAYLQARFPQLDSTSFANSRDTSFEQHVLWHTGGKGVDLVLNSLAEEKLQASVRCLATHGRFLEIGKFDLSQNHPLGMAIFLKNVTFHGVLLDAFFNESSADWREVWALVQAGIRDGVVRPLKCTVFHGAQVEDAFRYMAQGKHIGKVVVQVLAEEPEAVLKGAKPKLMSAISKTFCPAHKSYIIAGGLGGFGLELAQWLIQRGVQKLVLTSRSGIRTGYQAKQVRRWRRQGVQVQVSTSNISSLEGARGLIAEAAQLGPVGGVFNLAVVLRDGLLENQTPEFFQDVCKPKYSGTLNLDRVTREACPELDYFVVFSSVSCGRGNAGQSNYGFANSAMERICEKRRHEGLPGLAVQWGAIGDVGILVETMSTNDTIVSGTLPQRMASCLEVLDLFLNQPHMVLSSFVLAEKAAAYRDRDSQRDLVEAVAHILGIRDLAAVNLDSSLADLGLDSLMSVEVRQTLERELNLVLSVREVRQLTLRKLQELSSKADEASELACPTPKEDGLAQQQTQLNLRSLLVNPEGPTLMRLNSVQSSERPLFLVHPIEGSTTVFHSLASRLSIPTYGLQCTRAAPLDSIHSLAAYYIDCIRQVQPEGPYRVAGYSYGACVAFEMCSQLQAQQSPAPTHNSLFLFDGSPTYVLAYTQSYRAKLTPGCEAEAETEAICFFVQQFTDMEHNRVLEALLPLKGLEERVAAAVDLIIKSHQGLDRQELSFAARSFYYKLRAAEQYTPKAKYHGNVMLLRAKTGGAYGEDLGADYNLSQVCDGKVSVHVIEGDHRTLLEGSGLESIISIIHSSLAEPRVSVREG
Luciferin 4-monooxygenase, sequence (P08659 whole entry, the tested form may be a part): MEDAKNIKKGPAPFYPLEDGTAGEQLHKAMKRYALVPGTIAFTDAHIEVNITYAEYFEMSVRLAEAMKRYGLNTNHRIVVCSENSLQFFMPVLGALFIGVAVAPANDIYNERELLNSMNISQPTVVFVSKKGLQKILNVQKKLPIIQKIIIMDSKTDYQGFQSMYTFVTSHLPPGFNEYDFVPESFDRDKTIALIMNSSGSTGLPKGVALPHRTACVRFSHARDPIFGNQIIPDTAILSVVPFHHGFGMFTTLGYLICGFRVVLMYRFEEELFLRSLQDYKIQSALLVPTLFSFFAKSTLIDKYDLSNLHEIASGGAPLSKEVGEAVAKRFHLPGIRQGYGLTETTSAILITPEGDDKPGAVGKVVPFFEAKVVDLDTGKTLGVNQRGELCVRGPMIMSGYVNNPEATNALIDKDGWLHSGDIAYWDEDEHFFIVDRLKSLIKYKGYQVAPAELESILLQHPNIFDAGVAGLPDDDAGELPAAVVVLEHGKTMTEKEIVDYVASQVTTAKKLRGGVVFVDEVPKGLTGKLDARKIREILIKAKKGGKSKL
Cytochrome P450 2C9, sequence (P11712 whole entry, the tested form may be a part): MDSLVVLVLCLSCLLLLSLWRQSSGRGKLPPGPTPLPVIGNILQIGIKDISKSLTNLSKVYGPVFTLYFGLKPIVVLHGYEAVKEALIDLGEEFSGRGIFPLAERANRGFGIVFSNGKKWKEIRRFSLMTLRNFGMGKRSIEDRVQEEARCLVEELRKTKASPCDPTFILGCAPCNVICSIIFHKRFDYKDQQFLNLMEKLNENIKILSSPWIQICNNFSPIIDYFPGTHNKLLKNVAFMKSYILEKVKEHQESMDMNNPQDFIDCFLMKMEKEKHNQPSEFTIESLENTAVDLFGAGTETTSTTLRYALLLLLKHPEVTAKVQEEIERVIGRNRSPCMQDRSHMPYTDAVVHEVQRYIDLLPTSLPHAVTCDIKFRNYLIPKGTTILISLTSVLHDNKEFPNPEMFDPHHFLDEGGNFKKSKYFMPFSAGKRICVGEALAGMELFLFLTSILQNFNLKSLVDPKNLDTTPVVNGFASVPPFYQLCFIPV

Structure (SMILES): O=C(COC(=O)c1cccnc1Cl)NCc1ccco1
- IC50 [1]: 12.4 µM (active)

Structure (SMILES): Cc1c(C(=O)O)c(C(=O)O)nc2ccc(N3CCOCC3)cc12
- IC50 [2]: > 50 µM (not active)

Structure (SMILES): COc1ccc(-c2cc3ccccc3oc2=O)cc1NC(=S)NC(=O)c1ccc2c(c1)OCCO2
- IC50 [3]: > 20 µM (inactive)

Structure (SMILES): Cc1ccc(S(=O)(=O)NC2=NC(=O)/C(=C/c3cc([N+](=O)[O-])ccc3O)S2)cc1
- EC50 (cells [4]): > 350 µM (not active)
- AC50 (Caspase-6): 10.7 µM (active)
- EC50 (cells [5]): 53.1 µM (active)

Structure (SMILES): C[N+]1(CCOc2ccc([N+](=O)[O-])cc2)CCOCC1.[I-]
- AC50 (Cytochrome P450 2C9): inconclusive
- IC50 [1]: 4.86 µM (active)

Structure (SMILES): CCOC(=O)CCCSc1nnc(CCCCCN2C(=O)c3cccc4cccc(c34)C2=O)o1
- IC50 [3]: > 20 µM (inactive)

Structure (SMILES): O=C(Nc1cccc([N+](=O)[O-])c1)N1CCc2ccccc2C1
- IC50 (Fatty acid synthase [6]): 6.26 µM (active)
- IC50 (Fatty acid synthase [7]): 8.71 µM (active)

Structure (SMILES): COC(=O)c1cc(C(=O)OCC(=O)NC2CCCC2)cc([N+](=O)[O-])c1
- IC50 (Fatty acid synthase [6]): 9.42 µM (active)
- IC50 (Fatty acid synthase [7]): 8.82 µM (active)

Structure (SMILES): Fc1ccccc1Nc1nc2c(s1)CCc1ccccc1-2
- IC50 [2]: > 50 µM (not active)

Structure (SMILES): CN1CCN(/C=C2\SC(=S)NC2=O)CC1
- EC50 [8]: > 112 µM (not active)
- EC50 [9]: > 112 µM (not active)

Structure (SMILES): Cc1cc(/C=C2\C(=O)NC(=O)N(c3ccc(Cl)cc3)C2=O)c(C)n1-c1cccc(C(=O)O)c1
- IC50 [1]: 9.6 µM (active)
- EC50 [10]: > 300 µM (not active)
- EC50 [11]: 65.9 µM (active)

Structure (SMILES): O=C(Cc1ccc(-n2c(=O)c3ccccc3n(Cc3ccc(F)cc3)c2=O)cc1)NCC1CCCO1 (centres undefined)
- EC50 [8]: > 112 µM (not active)
- EC50 [9]: > 112 µM (not active)

Structure (SMILES): CCN(C(=S)Nc1cccnc1)c1cccc2ccccc12
- IC50 [2]: > 50 µM (not active)

Structure (SMILES): Cc1nc2cc(NC(=O)Nc3ccccc3Cl)ccc2n1C
- EC50 [8]: 5.86 µM (active)
- EC50 [9]: 5.05 µM (active)
